Read-outs that look alike come from different tables or passages of the source.
Experiments:
NMDA receptor [1] = biological target: T1, NMDA receptor (Rattus norvegicus, UniProt P35439); test: Inhibition of [3H]-MK-801 binding to rat crude synaptosomes (receptor ligand binding assay)
T1 construct: After the rats were decapitated, the prefrontal cortex and hippocampus were rapidly separated on ice; from tissue; host or cells: SD male rat prefrontal cortex and hippocampus, crude synaptosomes
Description: The affinity of the tested compounds on NMDA receptor was researched by receptor ligand binding assays.
Ten SD male rats of SPF grade were ordered and acclimated for 7 days for future use.
(§1) After the rats were decapitated, the prefrontal cortex and hippocampus were rapidly separated on ice and weighed, 10 volumes of 50 mM Tris-HCl buffer (50 mM Tris-HCl, 5 mM MgCl2·6H2O, 1 mM EDTA, 0.5% (W/V) BSA, 1 mM PMSF, 0.32 M sucrose, pH 7.4) was added, and the mixture was homogenized for five times at 1500 revolutions/min with 30 s each time. A homogenate was centrifuged for 10 min at 1000×g, and a supernatant was taken and centrifuged for 10 min at 40,000×g, the precipitates were collected, re-suspended with volumes of Tris-HCl buffer, incubated at 37° C. for 10 min, and centrifuged for 10 min at 40,000×g, finally the precipitates were re-suspended with the above buffer, aliquoted and stored at −80° C. for later use.
(2) Detection of Inhibitory Function of Tested Medicines on Binding of Crude Synaptosomes in Rats to [^3H]-MK-801
50 μg of rat crude synaptosomal proteins was added to all tubes respectively. A volume of 50 μl of MK-801 (dizocilpine) was added to a non-specific binding tube to achieve a final concentration of 100 μM, and the materials were reacted for 15 min in advance. 20 μL of control drug at corresponding concentration was added to the test tube for reaction for 15 min. A volume of 30 μl of labeled ligand [^3H]-MK-801 was successively added to all tubes to achieve a final concentration of 10 nM. All reaction tubes were supplemented to a volume of 200 μl with 50 mM Tris-HCl buffer (50 mM Tris-HCl, 5 mM MgCl2·6H2O, 1 mM EDTA, 0.5% (WN) BSA, 0.1% NaN3, pH 7.4). A reaction was carried out at 37° C. for 10 min. A type-49 glass fiber filter membrane was prepared and a sample was applied at the same time. The filter membrane was placed in a multi-head cell collector, and a reaction system was subjected to suction filtration under negative pressure and washed with an ice-cold 50 mM Tris-HCl buffer, 10 ml each time, for a total of 5 times. After suction drying, 1 ml of scintillation liquid was added to the filter membrane, the filter membrane was placed on a shaker for shaking for 1.5 h and then placed in a liquid scintillation counter on the next day to determine the radioactive intensity.
GraphPad5.0 software was used to analyze the data, and the percentage of competitive inhibition was calculated through nonlinear fitting, wherein:
Percentage of competitive inhibition %=((total binding tube cpm−compound cpm)/(total binding tube cpm−non-specific binding tube cpm))×100%;
Specific binding amount=total binding amount−non-specific binding amount, wherein each binding site was determined by double compound tubes.

NMDA receptor [2] = biological target: T1, NMDA receptor; test: NMDA receptor agonistic properties in rat crude synaptosomal proteins (maximum [3H]-MK-801 binding vs 1 mM glycine); assay type: biochemical; details: maximum [3H]-MK-801 binding % relative to 1 mM glycine; 50 μM glutamic acid
Description: as §1
(3) Detection of Influence of Tested Medicines on NMDA Receptor Agonistic Properties in Rat Crude Synaptosomal Proteins
100 μg of rat crude synaptosomal proteins was added to all tubes respectively. 50 μl of 5,7-dichlorokynurenic acid was added to a non-specific binding tube to achieve a final concentration of 10 μM. All tubes were preloaded with 50 μM of glutamic acid, and the materials were reacted for 15 min in advance. 20 μL of control drug at corresponding concentration was added to the test tube, and then reacted for 15 min. 1 mM glycine was added to the maximum reaction tube. A volume of 30 μl of labeled ligand [^3H]-MK-801 was successively added to all tubes to achieve a final concentration of 10 nM, and reacted for 15 min. All reaction tubes were supplemented to a volume of 500 μl with 50 mM Tris-HCl buffer (50 mM Tris-HCl, 5 mM MgCl2·6H2O, 1 mM EDTA, 0.5% (WN) BSA, 0.1% NaN3, pH 7.4). A reaction was carried out at 37° C. for 15 min. A type-49 glass fiber filter membrane was prepared and a sample was applied at the same time. The filter membrane was placed in a multi-head cell collector, and the reaction system was subjected to suction filtration under negative pressure and washed with an ice-cold 50 mM Tris-HCl buffer, 10 ml each time, for a total of 5 times. After suction drying, 1 ml of scintillation liquid was added to the filter membrane, the filter membrane was placed on the shaker for shaking for 1.5 h and then placed in the liquid scintillation counter on the next day to determine the radioactive intensity.
In an agonistic experiment, maximum [^3H]-MK-801 binding %=((tested compounds cpm−5,7 dichlorokynurenic acid cpm)/(1 mM glycine cpm−5,7 dichlorokynurenic acid cpm))×100%.

[3] = affinity on NMDA, [3H]-MK-801 10 nM, rat prefrontal cortex and hippocampus crude synaptosomes, read-out: IC50

| SMILES | IC50 (NMDA receptor [1]; [3]) | Maximum agonistic efficacy (%) (NMDA receptor [2]) | IC50 (NMDA receptor [1]) |
| --- | --- | --- | --- |
| CC(C)(C)OC(=O)N1CC2(C1)NCCS2 [A-002] | 0.33 nM | 45% | – |
| CC(C)(C)OC(=O)N1CCC2(C1)NCCS2 (stereo not drawn) [A-016] | 0.35 nM | 56% | – |
| CC(C)(C)OC(=O)N1CCC2(CC1)NCCS2 [A-030] | 0.35 nM | 39% | – |
| CC(=O)N1CCC2(CC1)NCCS2 [A-031] | 0.35 nM | 52% | – |
| Cl.N[C@@H](CO)C(=O)N1CCC2(CC1)NCCS2 [A-035] | 0.88 nM | 19% | – |
| CC(C)[C@H](N)C(=O)N1CCC2(CC1)NCCS2.Cl [A-036] | 0.89 nM | 28% | – |
| CC(C)(C)OC(=O)N1CCCC2(C1)NCCS2 (stereo not drawn) [A-044] | 0.66 nM | 28% | – |
| C[C@@H](O)[C@H](N)C(=O)N1CCCC2(C1)NCCS2.Cl (stereo partly drawn) [A-048] | 0.55 nM | 38% | – |
| CC(=O)N1CC2(C1)SCCN2C(C)=O [A-059] | 0.75 nM | 33% | – |
| CC(=O)N1CCSC12CN(C(=O)[C@@H](N)C(C)C)C2.Cl [A-068] | 1.3 nM | 48% | – |
| CC(=O)N1CCSC12CCN(C(=O)[C@@H](N)[C@@H](C)O)C2.Cl (stereo partly drawn) [A-074] | 0.89 nM | 38% | – |
| CC(=O)N1CCSC12CCN(C(=O)OC(C)(C)C)CC2 [A-078] | 1.59 nM | 56% | – |
| CC(=O)N1CCC2(CC1)SCCN2C(C)=O [A-079] | 1.25 nM | 41% | – |
| CC(=O)N1CCSC12CCCN(C(=O)[C@@H](N)[C@@H](C)O)C2.Cl (stereo partly drawn) [A-090] | 0.45 nM | 36% | – |
| CC(C)C(=O)N1CCSC12CNC2.Cl [A-093] | – | 65% | 0.48 nM |
| CC(=O)N1CCC2(CC1)SCCN2C(=O)C(C)C [A-111] | 1.58 nM | 38% | – |
| CC(C)C(=O)N1CCSC12CCN(C(=O)[C@@H](N)[C@@H](C)O)CC2.Cl [A-114] | 0.89 nM | 35% | – |
| CC(=O)N1CCCC2(C1)SCCN2C(=O)C(C)C (stereo not drawn) [A-119] | 1.89 nM | 35% | – |
| CC(C)C(=O)N1CCSC12CCCN(C(=O)[C@@H](N)[C@@H](C)O)C2.Cl (stereo partly drawn) [A-122] | 1.65 nM | 38% | – |
| C[C@@H](O)[C@H](N)C(=O)N1CC2(C1)SCCN2C(=O)C(C)(C)C.Cl [A-130] | 0.48 nM | 43% | – |
| CC(C)CN1CCSC12CN(C(=O)[C@@H](N)[C@@H](C)O)C2.Cl [A-162] | 0.45 nM | 38% | – |
| Cl.N[C@@H](CO)C(=O)N1CC2(C1)SCCN2Cc1ccccc1 [A-195] | 0.43 nM | 46% | – |
| C[C@@H](O)[C@H](N)C(=O)N1CC2(C1)SCCN2C.Cl [A-226] | 0.33 nM | 45% | – |
| C[C@@H](O)[C@H](N)C(=O)N1CCC2(C1)SCCN2C.Cl (stereo partly drawn) [A-234] | 1.58 nM | 75% | – |

| SMILES | IC50 (NMDA receptor [1]; [3]) | Maximum agonistic efficacy (%) (NMDA receptor [2]) | IC50 (NMDA receptor [1]) |
| --- | --- | --- | --- |
| CC(C)C(=O)N1CC2(C1)N[C@H](C(N)=O)CS2 [A-256] | 0.89 nM | 28% | – |
| C[C@@H](O)[C@H](N)C(=O)N1CCC2(C1)N[C@H](C(N)=O)CS2.Cl (stereo partly drawn) [A-266] | 3.2 nM | 45% | – |
| CC(C)C(=O)N1CCC2(CC1)N[C@H](C(N)=O)CS2 [A-272] | 0.54 nM | 19% | – |
| Cl.NC(=O)[C@@H]1CSC2(CCN(C(=O)[C@@H](N)CO)CC2)N1 [A-275] | 0.35 nM | 12% | – |
| CC(C)[C@H](N)C(=O)N1CCC2(CC1)N[C@H](C(N)=O)CS2.Cl [A-276] | 0.25 nM | 28% | – |
| C[C@@H](O)[C@H](N)C(=O)N1CCCC2(C1)N[C@H](C(N)=O)CS2.Cl (stereo partly drawn) [A-282] | 0.32 nM | 35% | – |
| COC(=O)[C@@H]1CSC2(CCN(C(=O)[C@@H](N)[C@@H](C)O)CC2)N1.Cl [A-291] | 0.88 nM | 13% | – |
| Cl.N#C[C@@H]1CSC2(CN(C(=O)[C@@H](N)CO)C2)N1 [A-303] | 0.24 nM | 35% | – |
| CC(C)[C@H](N)C(=O)N1CCSC12CNC2.Cl [A-329] | – | 26% | 0.73 nM |
| CC(C)[C@H](N)C(=O)N1CCSC12CN(C(=O)[C@@H](N)[C@@H](C)O)C2.Cl [A-331] | 0.59 nM | 31% | – |
| CC(=O)N1CC2(C1)N[C@H](C(=O)N[C@@H](CO)C(N)=O)CS2 [A-333] | 0.41 nM | 19% | – |
| NC(=O)C(CO)NC(=O)C1CSC2(CN(C(=O)C(N)CO)C2)N1 (stereo not drawn) [A-334] | 0.38 nM | 34% | – |
| CC(=O)N1[C@H](C(N)=O)CSC12CN(C(=O)[C@@H](N)C(C)O)C2.Cl (stereo partly drawn) [A-335] | 0.48 nM | 42% | – |
| CC(=O)N1CC2(C1)SCCN2C(=O)[C@@H](N)CC(N)=O.Cl [A-342] | 0.56 nM | 32% | – |
| C[C@@H](O)[C@H](N)C(=O)N1CCC2(C1)SCCN2C(=O)[C@@H](N)[C@@H](C)O.Cl (stereo partly drawn) [A-353] | 0.48 nM | 53% | – |
| CC(C)C(=O)N1CCC2(CC1)SCCN2C(=O)[C@@H](N)[C@@H](C)O.Cl [A-358] | 0.86 nM | 78% | – |
| C[C@@H](O)[C@H](N)C(=O)N1CCCC2(C1)SCCN2C(=O)[C@@H](N)[C@@H](C)O.Cl (stereo partly drawn) [A-367] | 0.29 nM | 39% | – |
| C[C@@H](O)[C@H](NC(=O)[C@@H]1CSC2(CNC2)N1)C(N)=O.Cl [A-370] | – | 46% | 0.36 nM |
| C[C@H](NC(=O)[C@@H]1CSC2(CN(C(=O)[C@@H](N)[C@@H](C)O)C2)N1)C(N)=O.Cl [A-378] | 1.66 nM | 49% | – |
| CC(=O)N1CCC2(C1)N[C@H](C(=O)N[C@H](C(N)=O)[C@@H](C)O)CS2.Cl (stereo partly drawn) [A-384] | 0.42 nM | 39% | – |
| C[C@@H](O)[C@H](NC(=O)[C@@H]1CSC2(CCNCC2)N1)C(N)=O.Cl [A-390] | 0.39 nM | 55% | – |
| C[C@@H](O)[C@H](N)C(=O)N1CCC2(CC1)N[C@H](C(=O)N[C@H](C(N)=O)[C@@H](C)O)CS2.Cl [A-394] | 0.79 nM | 63% | – |
| C[C@@H](O)[C@H](N)C(=O)N1CCCC2(C1)N[C@H](C(=O)N[C@H](C(N)=O)[C@@H](C)O)CS2.Cl (stereo partly drawn) [A-401] | 0.44 nM | 75% | – |
| C[C@@H](O)[C@H](N)C(=O)N1CC2(C1)N[C@H](C(=O)N1CCOCC1)CS2.Cl [A-409] | 0.56 nM | 36% | – |

— patent publication US20230348493A1, “COMPOUND FOR ADJUSTING ACTIVITY OF NMDA RECEPTOR, AND PHARMACEUTICAL COMPOSITION AND USE THEREOF” (BEIJING GREATWAY PHARMACEUTICAL TECHNOLOGY CO., LTD., priority 2020, published 2023)
